{"source": "patent US20220016277A1", "about": "“MACROCYCLIC COMPLEXES OF RADIONUCLIDES AND THEIR USE IN RADIOTHERAPY OF CANCER” (Cornell University, priority 2018, published 2022)", "key": {"[1]": {"assay": "Kinetic inertness of Lu^3+ complex of macropa: transchelation challenge", "format": "physicochemical", "details": "Lu^3+ complex of macropa formed in situ; addition of 10 equiv of EDTA; pH 7.4", "method": "(§1) Kinetic Inertness of La^3+ and Lu^3+ Complexes of Macropa: Transchelation Challenge. A stock solution of ethylenediaminetetraacetic acid (EDTA, 100 mM) was made in MOPS buffer (prepared as described above) by adjusting the pH of the initial suspension to 6.6 using aqueous NMe4OH. A stock solution of diethylenetriaminepentaacetic acid (DTPA, 125 mM) was prepared in H2O by adjusting the pH to 7.4 as described for EDTA. This solution was serially diluted with H2O to yield 12.5 mM and 1.25 mM solutions of DTPA.\n(§2) The preformed La^3+ and Lu^3+ complexes of macropa were challenged with EDTA. […] […]. Solutions were repeatedly analyzed by UV spectroscopy over the course of 21 days for any spectral changes. The final pH of each solution was between 7.18 and 7.25."}, "[2]": {"assay": "Kinetic inertness of La^3+ complex of macropa: transchelation challenge", "format": "physicochemical", "details": "La^3+ complex of macropa formed in situ; 1000 equiv of DTPA; whole 21-day observation", "method": "as §1, §2\nThe complex formed in situ between La^3+ and macropa was more rigorously challenged with excess DTPA. A solution containing 500 μM of complex, prepared using the LaCl3 and macropa stock solutions described above, was left to equilibrate for 5 min. Subsequently, it was portioned into cuvettes and diluted with either 125 mM DTPA, 12.5 mM DTPA, 1.25 mM DTPA, or MOPS to yield solutions containing 1000-, 100-, 10-, or 0-fold excess DTPA and 100 μM concentration of macropa. These solutions were repeatedly analyzed by UV spectroscopy over the course of 21 days for any spectral changes. The final pH of each solution was between 7.11 and 7.42."}}, "data": [{"compound": "O=C(O)c1cccc(CN2CCOCCOCCN(Cc3cccc(C(=O)O)n3)CCOCCOCC2)n1", "note": "[macropa, N,N′-bis[(6-carboxy-2-pyridil)methyl]-4,13-diaza-18-crown-6]", "values": [{"measurement": "time until Lu^3+ ion was transchelated", "setting": "[1]", "value": "≤ 1", "unit": "min"}, {"measurement": "time La^3+ complex remained intact", "setting": "[2]", "value": "up to 21 days"}]}]}
